“And” between values parts separate entries of the source, which are not always exact repeats. Equal entries are not always repeated.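 Each compound was tested at five concentrations against cells in 96-well plates for 48 hours. Here, GI50 denotes the concentration required for 50% inhibition of growth. At the TGI there is no net growth.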
Experiments:
Test in all cases: growth of human tumour cells (NCI), 48 h
NCI-H23 lung = system: NCI-H23 lung
DLD-1 colon = system: DLD-1 colon
XF 498 CNS = system: XF 498 CNS
ACHN renal = system: ACHN renal
MALME-3M melanoma = system: MALME-3M melanoma
HT29 colon = system: HT29 colon
SNB-78 CNS = system: SNB-78 CNS
MDA-MB-435 = system: MDA-MB-435
NCI/ADR-RES ovarian = system: NCI/ADR-RES ovarian
T-47D breast = system: T-47D breast

Compound	TGI (NCI-H23 lung)	TGI (DLD-1 colon) [µM]	TGI (XF 498 CNS) [µM]	TGI (ACHN renal) [µM]	TGI (MALME-3M melanoma)	TGI (HT29 colon)	TGI (SNB-78 CNS) [µM]	TGI (MDA-MB-435) [µM]	TGI (NCI/ADR-RES ovarian)	GI50 (NCI-H23 lung) [µM]	GI50 (DLD-1 colon) [µM]	GI50 (ACHN renal) [µM]	GI50 (MALME-3M melanoma) [µM]	GI50 (HT29 colon) [µM]	GI50 (MDA-MB-435) [µM]	GI50 (T-47D breast) [µM]	TGI (T-47D breast) [µM]	GI50 (NCI/ADR-RES ovarian) [µM]	GI50 (XF 498 CNS) [µM]	GI50 (SNB-78 CNS) [µM]
N#CNc1nc(C(=O)Nc2ccc(Cl)cc2)cc(-c2ccccc2)n1	> 100 µM	> 100	> 100	> 100	> 100 µM	> 100 µM	> 100													
CC(=O)OC1C/C(C)=C/[C@H](O)CC(C)/C=C/[C@@]2(C)CCC(C(C)(C)O)C12 (stereo partly specified)	> 100 µM	> 100	> 100	> 100	> 100 µM	> 100 µM	> 100													
O=C(O)C1=C(Cl)c2ccccc2S1(=O)=O	> 100 µM	> 100	> 100		> 100 µM		> 100													
Cc1cccc(NC(=O)Cc2nc3ccccc3s2)c1C	> 100 µM	> 100	> 100	> 100	> 100 µM	> 100 µM														
CN(/C(=N\O)c1ccccc1)c1ccccc1	61.2 µM	> 100			84.1 µM	87.5 µM	88.7													
O=C(Nc1cc([N+](=O)[O-])cc([N+](=O)[O-])c1)OC1C2CCC1C1OC1C2 (stereo unspecified)	> 50 µM	> 50		> 50	> 50 µM		> 50													
CN(C)C(=S)/N=c1\ssc(=S)n1Cc1ccccn1	> 100 µM	> 100	34.3	> 100	22.7 µM	> 100 µM	> 100													
COc1ccc(CC(C#N)c2cc(OC)c(OC)c(OC)c2)cc1 (stereo unspecified)	1.96 µM	> 100	28.6	> 91.6	> 100 µM	5.72 µM	> 100	> 100	> 100 µM											
O=C(Cc1nc2ccccc2s1)C(=O)Nc1ccc(Cl)cc1Cl	> 100 µM	> 100	> 100	> 100	> 100 µM	> 100 µM	> 100													
N=C(N)Cn1cnc2ccccc21	> 100 µM			> 100	> 100 µM		> 100													
CC(=O)[CH-]C(=O)c1ccccc1.CC(=O)[CH-]C(=O)c1ccccc1.CC12CC3(C)CC(C)(C1)CC([O-])(C2)C3.CC[O-].[Ti+4]	34.4 µM	78.6		> 100	47 µM	> 100 µM				18.1	17	38.7	17.5	27						
O/N=C1/C(=C/c2ccc(Cl)cc2)CCCC1C(NO)c1ccc(Cl)cc1 (stereo unspecified)	54 µM	> 100	60.1	> 100	64.6 µM	36.6 µM	48.5													
C[n+]1ccc2[nH]c3ccccc3c2c1	> 100 µM	> 100		> 100	99.4 µM	> 100 µM	> 100													
CCCCc1oc2ccccc2c1C(=O)c1cc(I)c(OCCN(CC)CC)c(I)c1	8.87 µM and 18 µM	54.1	8.25	15.6	3.71 µM and 8.57 µM	5.01 µM and 8.27 µM	25	6.53	4.54 µM and 16.5 µM	2.67		4.14	1.86	1.97	2.41	3.16	12.2	1.94		
c1ccc([P+](CCC[P+](c2ccccc2)(c2ccccc2)c2ccccc2)(c2ccccc2)c2ccccc2)cc1	> 100 µM	> 100	77.9	> 100	> 100 µM	> 100 µM	> 100	> 100	> 100 µM	18.8				9.89	4.84	4.1	84.9	> 100		
Cn1c(=O)c2[nH]cnc2n(CC(=O)O)c1=O	> 100 µM	> 100	> 100	> 100	> 100 µM	> 100 µM	> 100													
CCC[CH2][Sn]1([CH2]CCC)[O]CC([CH2][Sn]([c]2ccccc2)([c]2ccccc2)[c]2ccccc2)[O]1 (stereo unspecified)		18.4	28.6	32.5	26.4 µM		26.4				5.92	17	13.6						15.3	10.2
CN(Cc1ccccc1)c1nc(=[N+](C)C)ss1	> 100 µM	> 100	> 100	> 100	> 100 µM	> 100 µM	> 100													
O=C1c2c(O)cccc2C(C(=O)CCCC(=O)C2c3cccc(O)c3C(=O)c3c(O)cccc32)c2cccc(O)c21	1.13 µM	7	0.226	1.02	2.85 µM	2.48 µM	0.785	2.5									0.941			
CC(=O)NNc1nc(C)c(C(/C=C/c2ccc(Cl)cc2)=N/NC(=S)NN)s1	> 100 µM	> 100	> 100	> 100	> 100 µM	> 100 µM	> 100													
CCc1ccccc1NC(=O)C1=C(C)NC(C)=C(C(=O)Nc2ccccc2CC)C1c1ccc(NC(C)=O)cc1	> 100 µM	87.6		> 100	> 100 µM	> 100 µM	82.1													
O/N=C1/C(=C/c2ccccc2)CCCC1C(NO)c1ccccc1 (stereo unspecified)	> 100 µM		99.2	> 100	> 100 µM	> 100 µM	> 100													
COC(=O)NN=C1C(C)(C)C(=NNC(=O)OC)C1(C)C	> 78.1 µM	> 100	> 100	> 100	> 100 µM	> 53.6 µM	> 100													

— PubChem BioAssay (NCI)
